Measured values from EPA's ToxValDB 9.5 (doi:10.2903/j.efsa.2018.5288).
In brackets after ≈: the same amount, converted by molar mass.

Experiments:
Anas platyrhynchos = details: short-term; mortality
Apis mellifera = details: acute, mortality
Mus musculus = details: chronic; duration: 18 months; oral; diet; neurology
Lepomis macrochirus = details: acute; duration: 96 hours; mortality

In the case of `CCCCC(CC)COC(=O)[C@@H](C)Oc1ccc(Cl)cc1Cl` (stereo not given in full) [Dichlorprop-P-2-ethylhexyl], the LD50 (Colinus virginianus; acute, oral, mortality) is reported as 1010 mg/kg-day, the NOEL (Colinus virginianus; reproduction developmental) is reported as 101 mg/kg-day and the LD50 (Anas platyrhynchos) is reported as > 928 mg/kg-day. The LD50 (Apis mellifera; dermal) was > 180 µg/piece, the LD50 (Apis mellifera; oral, unspecified) was > 178 µg/piece and the LD50 (Rattus norvegicus; acute, mortality) was 824 mg/kg-day. It also gave an NOAEL (Rattus norvegicus; developmental, development) of 80 mg/kg-day, an NOAEL (Rattus norvegicus; reproduction developmental, body weight) of 20 mg/kg-day and an NOAEL (Mus musculus) of 6 mg/kg-day. For the same compound, the LC50 (Lepomis macrochirus) was 7.9 µg/mL (≈ 22.7 µM).
